Assay [1] concerns human peripheral blood mononuclear cells (PBMC). In words: TNF-α secretion by human PBMC (ELISA). The settings on record: for TNF-α: 24 h. It counts as cell-based. The procedure:
(§1) Peripheral blood from healthy donors (Centre de transfusion, Hôpital Universitaire, Geneva) was centrifuged to get the buffy coat. The buffy coat was mixed with Hanks' balanced saline solution (HBSS, Sigma, Buchs, Switzerland), layered over Ficoll Paque Plus (Amersham Pharmacia) to 1.077 g/mL and centrifuged (2800 rpm, 20° C., 25 min). Cells harvested from the interphase were washed twice in HBSS at 800 rpm for 15 min at room temperature and the pelleted cells were resuspended in HBSS. The cell counts were performed using a Neubauer cell. All cell cultures were performed in RPMI-1640 medium supplemented with penicillin (100 U/mL), streptomycin (100 μg/mL), L-glutamine (2 mmol/L) and 10% fetal calf serum (FCS), all obtained from Sigma. For in vitro stimulation, the cells were cultured at a concentration of 1×10^6 viable cells/well.
(§2) PBMC were incubated at 37° C. and under 5% CO2 atmosphere with the controls (see below) and with the products of the invention at 1, 5, and 20 μg/mL for IL-6, and at 0.2, 2, and 20 μg/mL for TNF-α secretion. Medium: RPMI alone.
(§3) The surpernatants of the cultures were harvested after 24 h and the concentration of IL-6 and TNF-α were measured by an enzyme-linked immunosorbent assay (ELISA) (Human IL-6 and TNF-α ELISA Set, BD OptEIA, San Diego, USA), according to the manufacturer instructions. The detection limits were 10 and 8 pg/mL respectively.

For assay [2] the test system is unchanged. In words: IL-6 secretion by human PBMC (ELISA). It counts as cell-based. The settings on record: for IL6: 24 h; for IL-6 secretion (in words): 1, 5, 20 μg/ml. The procedure:
as §1, §2, §3
PBMC are incubated at 37° C. and under 5% CO2 atmosphere with the products of the invention.
The supernatants of the cultures are harvested after 24 h and the concentration of IL-6 was measured by an enzyme-linked immunosorbent assay (ELISA) (Human IL-6 ELISA Set, BD OptEIA, San Diego, USA), according to the manufacturer instructions. The detection limit was 10 pg/mL.
(In general: In an ELISA, binding on a coated surface is turned into a signal by an enzyme label.)

A further assay concerns the target T1, TLR4 (Homo sapiens, UniProt O00206+Q9Y6Y9).
T1 construct: expressed in transfected cells; host or cells: HEK293
In words: HEK-MD2-TLR4-CD14 IL-8 secretion. It counts as cell-based. The following applies: 24 h. An excerpt:
(§4) The HEK293 cell line was chosen for its null or low basal expression of the TLR genes. These cells enable efficient monitoring of TLR activity using ELISA analysis such as IL-8 titration or reporter-based systems that monitor TLR-induced NF-κB activation. HEK-TLR2 cells (Invivogen, Toulouse, France) are engineered HEK293 cells stably transfected with multiple genes from the TLR2 pathway that include TLR2 and genes participating in the recognition or involved in the signaling cascade. These cells secrete IL-8 after TLR2 stimulation. The experiments were performed according to manufacturers' instructions. Briefly, 2×10^4 cells/well (200 ul RPMI) are incubated at 37° C. during 3 days (5% CO2). The medium is removed, and 90 ul RPMi+5% FCS is added to the wells Then the agonists and controls are added (10 ul/well). The cells return to the incubator for 24 hours. The supernatants are collected and the IL-8 ELISA is performed according to manufacturer's instructions
HEK-MD2-TLR4-CD14 are highly sensitive to LPS. They were obtained by stable transfection of HEK293 cells with the TLR4, MD2 and CD14 genes and an NF-κB-inducible reporter system. They secrete IL-8. We used the same experimental procedure as for the other HEK cell lines described above.

The target of a further assay is T2, TLR2 (Homo sapiens, UniProt O60603).
T2 construct: host or cells: HEK293
T2 sequence (O60603 21-784): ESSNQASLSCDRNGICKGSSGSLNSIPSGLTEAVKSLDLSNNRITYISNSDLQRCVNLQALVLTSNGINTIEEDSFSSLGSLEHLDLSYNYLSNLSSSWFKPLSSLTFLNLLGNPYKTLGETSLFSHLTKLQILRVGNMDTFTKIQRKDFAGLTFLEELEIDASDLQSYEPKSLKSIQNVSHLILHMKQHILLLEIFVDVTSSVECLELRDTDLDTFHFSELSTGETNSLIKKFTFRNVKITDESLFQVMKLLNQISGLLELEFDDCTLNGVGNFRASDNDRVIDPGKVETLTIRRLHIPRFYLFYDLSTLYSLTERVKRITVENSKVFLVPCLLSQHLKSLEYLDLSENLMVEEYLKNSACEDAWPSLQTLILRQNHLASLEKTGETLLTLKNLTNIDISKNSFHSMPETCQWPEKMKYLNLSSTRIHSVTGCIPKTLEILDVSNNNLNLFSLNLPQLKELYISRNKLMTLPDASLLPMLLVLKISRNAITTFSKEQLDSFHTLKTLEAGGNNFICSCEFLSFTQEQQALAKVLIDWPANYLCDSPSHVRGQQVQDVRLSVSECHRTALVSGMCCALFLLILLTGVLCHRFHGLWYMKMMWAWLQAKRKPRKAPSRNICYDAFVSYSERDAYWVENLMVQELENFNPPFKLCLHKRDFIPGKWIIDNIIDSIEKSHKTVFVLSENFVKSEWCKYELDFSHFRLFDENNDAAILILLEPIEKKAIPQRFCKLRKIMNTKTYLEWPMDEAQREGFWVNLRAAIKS
In words: HEK-TLR2 IL-8 secretion. It counts as cell-based. The following applies: for IL-8 secretion, mean: 24 h.
Text: as §4

Assay [3] has as its system THP1-Blue cells (express naturally both TLR2 and TLR4). In words: THP1-Blue NF-κB/AP-1-inducible SEAP reporter. It counts as cell-based, human. The settings on record: for Optical density read at 625 nm, mean of duplicates: 48 h. Here is the method:
A first series of experiment was performed on THP-1 cells, which express naturally both TLR2 and TLR4. THP-1 cells are human peripheral blood monocytic cells. Monocytes play a key role in innate immunity and express most TLRs at various levels. As for the primary cells, THP-1 cells activate NF-κB and other transcription factors in response to TLR ligands
To facilitate analysis of TLR response in monocytes, InvivoGen (Toulouse, France) provides THP-1 clones stably transfected with an NF-κB-inducible reporter system, called THP1-Blue™. THP-1 Blue cells were stably transfected with a reporter plasmid expressing a secreted embryonic alkaline phosphatase (SEAP) gene under the control of a promoter inducible by several transcription factors such as NF-κB and AP-1. Upon TLR stimulation, THP1-Blue™ cells activate transcription factors and subsequently the secretion of SEAP which is easily detectable when using QUANTI-Blue\u2122a medium that turns purple/blue in the presence of SEAP.
The cells were stimulated with the controls and compounds of the invention according to manufacturer's instructions. Results: Increased OD at 625 Nm after 48 Hours: The results for the controls (negative=LPS K12CD25 ultrapure, a TLR4 agonist; and PAM3CSK4=positive, a TLR2 agonist) are provided in the table below. The results (expressed as OD of arbitrary units) show the mean values (from duplicate measures) of Optical density read at 625 nm, 48 h after stimulation at 37° C. with the controls (up to 1000 ng/ml): […]

Molecules are shown by their SMILES. Entries after “also recorded” stand apart in the source; their conditions may differ.

T1 sequence (O00206 24-839): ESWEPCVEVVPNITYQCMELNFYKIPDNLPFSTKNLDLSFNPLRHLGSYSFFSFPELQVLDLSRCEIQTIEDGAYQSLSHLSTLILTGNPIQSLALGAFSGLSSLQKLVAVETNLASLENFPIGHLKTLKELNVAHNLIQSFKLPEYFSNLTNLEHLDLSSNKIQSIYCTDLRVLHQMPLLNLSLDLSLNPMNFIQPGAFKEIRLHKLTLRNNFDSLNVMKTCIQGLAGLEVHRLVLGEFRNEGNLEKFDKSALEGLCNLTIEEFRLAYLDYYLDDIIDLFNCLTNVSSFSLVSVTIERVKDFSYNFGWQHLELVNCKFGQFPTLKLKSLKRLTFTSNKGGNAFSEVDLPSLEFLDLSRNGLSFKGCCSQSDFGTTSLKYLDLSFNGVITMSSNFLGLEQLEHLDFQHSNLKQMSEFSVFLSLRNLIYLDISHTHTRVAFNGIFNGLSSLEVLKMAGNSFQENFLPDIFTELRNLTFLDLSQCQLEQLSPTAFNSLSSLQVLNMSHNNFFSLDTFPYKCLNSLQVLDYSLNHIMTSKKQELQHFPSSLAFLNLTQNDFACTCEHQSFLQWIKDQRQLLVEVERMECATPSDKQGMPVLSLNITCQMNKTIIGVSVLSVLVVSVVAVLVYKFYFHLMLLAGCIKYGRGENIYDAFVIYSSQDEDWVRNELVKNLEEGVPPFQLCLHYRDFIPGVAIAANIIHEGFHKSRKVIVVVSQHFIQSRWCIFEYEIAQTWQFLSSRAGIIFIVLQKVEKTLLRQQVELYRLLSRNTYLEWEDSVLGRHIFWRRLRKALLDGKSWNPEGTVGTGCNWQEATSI
T1 sequence (Q9Y6Y9 17-160 limits assumed): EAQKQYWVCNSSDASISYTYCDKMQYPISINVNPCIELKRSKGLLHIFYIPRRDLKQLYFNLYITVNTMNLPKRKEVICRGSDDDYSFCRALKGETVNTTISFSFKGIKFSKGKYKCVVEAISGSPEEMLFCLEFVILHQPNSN

`CCCCCCCCCCCC(=O)O[C@H](CCCCCCCCCCC)CC(=O)NC1C(OCC2OC(OP(=O)(O)O)C(NC(=O)C[C@H](O)CCCCCCCCCCC)C(O)C2O)OC(CO)C(OP(=O)(O)O)C1O` (stereo partly drawn) [compound 1b, 2-Deoxy-6-O-[2-deoxy-4-O-(dihydroxyphosphoryl)-2-[(R)-3-dodecanoyloxytetradecanoylamino]-β-D-glucopyranosyl]-2-[(R)-3-hydroxytetradecanoylamino]-α-D-glucopyranosyl dihydrogenophosphate]: the TNF-α in assay [1] (0.2 μg/ml) was 37 pg/mL; in assay [1] (2 μg/ml), 117 pg/mL; in assay [1] (20 μg/ml), 1105 pg/mL. Further, the “TNF-α induction (in words)” value in assay [1] (0.2, 2, 20 μg/ml) is recorded as “induced high levels of TNF-α”. Further, the IL6 in assay [2] (1 μg/ml) amounted to 20.2 pg/mL; in assay [2] (5 μg/ml), 57.1 pg/mL; in assay [2] (20 μg/ml), 225.5 pg/mL. In assay [2], the “IL-6 secretion (in words)” value is given as “higher levels of IL-6; also recorded: able to induce IL-6 secretion”.

Regarding `CCCCCCCCCCCC(=O)O[C@H](CCCCCCCCCCC)CC(=O)N[C@H]1[C@H](OC[C@H]2O[C@H](OCCOP(=O)(O)O)[C@H](NC(=O)C[C@H](O)CCCCCCCCCCC)[C@@H](O)[C@@H]2O)O[C@H](CO)[C@@H](OP(=O)(O)O)[C@@H]1O` [compound 33, 2-(Phosphonooxy)ethyl-2-Deoxy-6-O-[2-deoxy-4-O-(dihydroxyphosphoryl)-2-[(R)-3-dodecanoyloxytetradecanoylamino]-β-D-glucopyranosyl]-2-[(R)-3-hydroxytetradecanoylamino]-α-D-glucopyranoside], the “IL-8 secretion, mean” value was found to be 1.83 pg/mL at TLR4 (14 ng/ml); 1.79 pg/mL on TLR4 (41 ng/ml); 1.65 pg/mL at TLR4 (124 ng/ml); 1.64 pg/mL at TLR4 (370 ng/ml); 1.58 pg/mL on TLR4 (1111 ng/ml); 1.62 pg/mL at TLR4 (3333 ng/ml). The “IL-8 secretion, mean” value at TLR4 (10000 ng/ml) stood at 1.78 pg/mL; on TLR2 (14 ng/ml), 0.12 pg/mL; on TLR2 (41 ng/ml), 0.18 pg/mL; at TLR2 (124 ng/ml), 0.23 pg/mL; at TLR2 (370 ng/ml), 0.31 pg/mL; on TLR2 (1111 ng/ml), 0.68 pg/mL. Besides, the “IL-8 secretion, mean” value on TLR2 (3333 ng/ml) was 1.66 pg/mL; on TLR2 (10000 ng/ml) it was 3.64 pg/mL. Moreover, the “activation of IL-8 secretion via TLR2 (in words)” value at TLR2 (HEK-TLR2) is recorded as “able to activate IL-8 secretion via TLR2”. Moreover, the TNF-α in assay [1] (0.2 μg/ml) was found to be 8.0 pg/mL; in assay [1] (2 μg/ml), 8.3 pg/mL; in assay [1] (20 μg/ml), 21 pg/mL. Also, in assay [3], the “activation of THP-1 cells (in words)” value was “weaker”. Besides, the “Optical density read at 625 nm, mean of duplicates” value (shortened to “Optical density read at 625 nm”) amounted to 0.13 OD in assay [3] (14 ng/ml); 0.12 OD in assay [3] (41 ng/ml); 0.13 OD in assay [3] (124 ng/ml); 0.16 OD in assay [3] (370 ng/ml); 0.19 OD in assay [3] (1111 ng/ml); 0.25 OD in assay [3] (3333 ng/ml). The “Optical density read at 625 nm” value in assay [3] (10000 ng/ml) was 0.35 OD.

As to `CCCCCCCCCCCC(=O)O[C@H](CCCCCCCCCCC)CC(=O)N[C@H]1[C@H](OC[C@H]2O[C@H](OCC(O)CO)[C@H](NC(=O)C[C@H](O)CCCCCCCCCCC)[C@@H](O)[C@@H]2O)O[C@H](CO)[C@@H](OP(=O)(O)O)[C@@H]1O` (stereo partly drawn) [compound 19, 2,3-Dihydroxypropyl-2-Deoxy-6-O-[2-deoxy-4-O-(dihydroxyphosphoryl)-2-[(R)-3-dodecanoyloxytetradecanoylamino]-β-D-glucopyranosyl]-2-[(R)-3-hydroxytetradecanoylamino]-α-D-glucopyranoside], the “IL-8 secretion, mean” value at TLR4 (14 ng/ml) is 1.69 pg/mL; at TLR4 (41 ng/ml) it was 1.64 pg/mL; on TLR4 (124 ng/ml), 1.56 pg/mL; at TLR4 (370 ng/ml), 1.67 pg/mL; on TLR4 (1111 ng/ml), 1.73 pg/mL; at TLR4 (3333 ng/ml), 1.88 pg/mL. The “IL-8 secretion, mean” value at TLR4 (10000 ng/ml) worked out at 1.96 pg/mL; on TLR2 (14 ng/ml), 0.06 pg/mL; at TLR2 (41 ng/ml) it was 0.15 pg/mL; on TLR2 (124 ng/ml), 0.16 pg/mL; on TLR2 (370 ng/ml) it was 0.20 pg/mL; on TLR2 (1111 ng/ml), 0.27 pg/mL. For the same compound, the “IL-8 secretion, mean” value turned out to be 0.37 pg/mL at TLR2 (3333 ng/ml) and 0.62 pg/mL on TLR2 (10000 ng/ml). The TNF-α turned out to be 9.2 pg/mL in assay [1] (0.2 μg/ml), 5.1 pg/mL in assay [1] (2 μg/ml) and 11.2 pg/mL in assay [1] (20 μg/ml). In addition, the IL6 in assay [2] (1 μg/ml) was 44.5 pg/mL; in assay [2] (5 μg/ml) it was 95.9 pg/mL; in assay [2] (20 μg/ml) it was 199.1 pg/mL. Moreover, in assay [2], the “IL-6 secretion (in words)” value was “able to induce IL-6 secretion”. For the same compound, the “activation of THP-1 cells (in words)” value in assay [3] is listed as “good activators of THP-1 cells”. In addition, the “Optical density read at 625 nm” value is recorded as 0.15 OD in assay [3] (14 ng/ml); 0.13 OD in assay [3] (41 ng/ml); 0.17 OD in assay [3] (124 ng/ml); 0.24 OD in assay [3] (370 ng/ml); 0.37 OD in assay [3] (1111 ng/ml); 0.58 OD in assay [3] (3333 ng/ml). The “Optical density read at 625 nm” value in assay [3] (10000 ng/ml) is on record as 0.77 OD.
